Source: paper PMC8706783 (Pharmaceutics, 2021)

Columns and labels:
[1] = target: T1, UGT1A6 (Homo sapiens, UniProt P19224); test: Reaction phenotyping, rUGT1A6; details: recombinant UGT1A6, pH 7.4
T1 sequence (P19224 27-532): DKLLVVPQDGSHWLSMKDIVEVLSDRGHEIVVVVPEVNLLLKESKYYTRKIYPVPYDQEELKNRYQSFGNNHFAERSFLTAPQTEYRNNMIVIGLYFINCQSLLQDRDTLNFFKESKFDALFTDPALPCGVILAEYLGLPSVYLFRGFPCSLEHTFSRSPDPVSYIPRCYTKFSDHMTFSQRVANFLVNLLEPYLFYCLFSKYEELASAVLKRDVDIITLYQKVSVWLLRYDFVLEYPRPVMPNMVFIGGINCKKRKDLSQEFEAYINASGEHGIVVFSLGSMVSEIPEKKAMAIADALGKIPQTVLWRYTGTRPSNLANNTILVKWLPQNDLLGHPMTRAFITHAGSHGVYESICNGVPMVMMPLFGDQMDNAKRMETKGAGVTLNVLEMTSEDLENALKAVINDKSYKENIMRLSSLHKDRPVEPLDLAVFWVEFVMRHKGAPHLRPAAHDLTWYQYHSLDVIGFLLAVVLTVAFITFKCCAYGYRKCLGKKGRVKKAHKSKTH

[2] = Reaction phenotyping, HLM with UDPGA; details: human, human liver microsomes, pH 7.4
[3] = target: T2, UGT1A8 (Homo sapiens, UniProt Q9HAW9); test: Reaction phenotyping, rUGT1A8; details: recombinant UGT1A8, pH 7.4
T2 sequence (Q9HAW9 26-530): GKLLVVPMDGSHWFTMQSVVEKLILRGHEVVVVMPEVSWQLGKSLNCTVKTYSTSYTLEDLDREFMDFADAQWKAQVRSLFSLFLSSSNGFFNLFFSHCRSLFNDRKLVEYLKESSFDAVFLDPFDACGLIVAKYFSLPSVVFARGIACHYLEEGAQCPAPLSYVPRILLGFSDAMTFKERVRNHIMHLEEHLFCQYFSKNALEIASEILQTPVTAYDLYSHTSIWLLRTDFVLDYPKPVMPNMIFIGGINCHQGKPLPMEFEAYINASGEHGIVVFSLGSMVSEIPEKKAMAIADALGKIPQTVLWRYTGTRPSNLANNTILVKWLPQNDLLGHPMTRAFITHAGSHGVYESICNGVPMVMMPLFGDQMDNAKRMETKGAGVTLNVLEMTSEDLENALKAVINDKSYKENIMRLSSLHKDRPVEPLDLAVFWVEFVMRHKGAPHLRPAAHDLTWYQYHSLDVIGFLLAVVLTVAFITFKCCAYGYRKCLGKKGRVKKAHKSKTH

[4] = target: T3, UGT1A7 (Homo sapiens, UniProt Q9HAW7); test: Reaction phenotyping, rUGT1A7; details: recombinant UGT1A7, pH 7.4
T3 sequence (Q9HAW7 26-530): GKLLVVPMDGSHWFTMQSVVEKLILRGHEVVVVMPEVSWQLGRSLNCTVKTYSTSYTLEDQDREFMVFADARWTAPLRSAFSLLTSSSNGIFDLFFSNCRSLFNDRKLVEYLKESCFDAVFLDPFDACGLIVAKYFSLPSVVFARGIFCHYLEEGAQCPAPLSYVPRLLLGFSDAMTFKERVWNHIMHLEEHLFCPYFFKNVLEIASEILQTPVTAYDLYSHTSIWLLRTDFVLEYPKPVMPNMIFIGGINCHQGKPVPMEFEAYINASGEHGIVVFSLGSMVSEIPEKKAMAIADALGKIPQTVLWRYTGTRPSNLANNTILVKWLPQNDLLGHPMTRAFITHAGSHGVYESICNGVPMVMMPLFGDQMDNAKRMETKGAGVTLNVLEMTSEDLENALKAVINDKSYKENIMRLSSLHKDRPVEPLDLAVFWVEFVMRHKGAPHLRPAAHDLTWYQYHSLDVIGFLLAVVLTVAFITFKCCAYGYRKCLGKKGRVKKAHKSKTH

[5] = target: rCYP1B1 (Homo sapiens, UniProt Q16678); details: recombinant enzyme, 1 h
[6] = target: T4, UGT1A9 (Homo sapiens, UniProt O60656); test: Reaction phenotyping, rUGT1A9; details: recombinant UGT1A9, pH 7.4
T4 sequence (O60656 26-530): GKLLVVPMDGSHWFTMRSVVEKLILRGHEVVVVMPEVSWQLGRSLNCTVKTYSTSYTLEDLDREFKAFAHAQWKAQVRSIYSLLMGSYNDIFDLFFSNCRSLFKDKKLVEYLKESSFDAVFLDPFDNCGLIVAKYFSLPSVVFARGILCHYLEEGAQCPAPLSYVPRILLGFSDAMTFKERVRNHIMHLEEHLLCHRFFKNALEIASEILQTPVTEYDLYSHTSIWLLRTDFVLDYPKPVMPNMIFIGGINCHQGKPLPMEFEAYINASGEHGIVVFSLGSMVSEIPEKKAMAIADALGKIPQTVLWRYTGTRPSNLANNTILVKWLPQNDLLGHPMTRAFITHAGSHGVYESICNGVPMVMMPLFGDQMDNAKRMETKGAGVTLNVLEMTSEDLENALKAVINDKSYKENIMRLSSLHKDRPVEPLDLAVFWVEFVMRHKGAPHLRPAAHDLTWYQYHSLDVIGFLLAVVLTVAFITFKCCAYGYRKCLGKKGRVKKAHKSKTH

[7] = target: T5, CYP1A1 (Homo sapiens, UniProt P04798); test: Reaction phenotyping, rCYP1A1; details: recombinant CYP1A1, pH 7.4
T5 sequence (P04798 1-512): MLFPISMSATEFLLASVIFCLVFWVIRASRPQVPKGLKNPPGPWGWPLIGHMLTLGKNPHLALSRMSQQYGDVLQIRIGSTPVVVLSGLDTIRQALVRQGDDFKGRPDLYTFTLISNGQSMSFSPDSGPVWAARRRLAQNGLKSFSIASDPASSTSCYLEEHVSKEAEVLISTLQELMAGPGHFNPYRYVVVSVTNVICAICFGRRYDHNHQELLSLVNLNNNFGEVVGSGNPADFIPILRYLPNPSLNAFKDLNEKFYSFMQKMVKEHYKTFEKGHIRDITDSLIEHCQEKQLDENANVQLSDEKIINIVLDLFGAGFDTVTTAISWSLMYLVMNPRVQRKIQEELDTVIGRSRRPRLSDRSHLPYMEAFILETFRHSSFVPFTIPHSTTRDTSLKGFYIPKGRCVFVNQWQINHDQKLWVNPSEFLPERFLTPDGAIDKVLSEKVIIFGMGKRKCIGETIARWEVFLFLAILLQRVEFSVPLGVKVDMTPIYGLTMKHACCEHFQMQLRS

[8] = target: T6, CYP1A2 (Homo sapiens, UniProt P05177); test: Reaction phenotyping, rCYP1A2; details: recombinant CYP1A2, pH 7.4
T6 sequence (P05177 1-516): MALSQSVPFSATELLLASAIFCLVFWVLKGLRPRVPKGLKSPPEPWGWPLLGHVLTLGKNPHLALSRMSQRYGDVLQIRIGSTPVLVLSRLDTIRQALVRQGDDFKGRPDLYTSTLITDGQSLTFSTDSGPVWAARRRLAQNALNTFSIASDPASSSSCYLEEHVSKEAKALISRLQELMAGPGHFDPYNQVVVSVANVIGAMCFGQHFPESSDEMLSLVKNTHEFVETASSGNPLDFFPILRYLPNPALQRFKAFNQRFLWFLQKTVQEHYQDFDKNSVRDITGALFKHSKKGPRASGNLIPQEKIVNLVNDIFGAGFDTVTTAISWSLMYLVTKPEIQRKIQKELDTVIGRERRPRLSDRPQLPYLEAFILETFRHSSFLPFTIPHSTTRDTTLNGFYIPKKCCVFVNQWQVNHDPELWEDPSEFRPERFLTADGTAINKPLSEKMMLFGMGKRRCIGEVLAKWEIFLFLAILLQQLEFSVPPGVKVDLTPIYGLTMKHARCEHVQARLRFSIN

[9] = target: T7, UGT1A4 (Homo sapiens, UniProt P22310); test: Reaction phenotyping, rUGT1A4; details: recombinant UGT1A4, pH 7.4
T7 sequence (P22310 29-534): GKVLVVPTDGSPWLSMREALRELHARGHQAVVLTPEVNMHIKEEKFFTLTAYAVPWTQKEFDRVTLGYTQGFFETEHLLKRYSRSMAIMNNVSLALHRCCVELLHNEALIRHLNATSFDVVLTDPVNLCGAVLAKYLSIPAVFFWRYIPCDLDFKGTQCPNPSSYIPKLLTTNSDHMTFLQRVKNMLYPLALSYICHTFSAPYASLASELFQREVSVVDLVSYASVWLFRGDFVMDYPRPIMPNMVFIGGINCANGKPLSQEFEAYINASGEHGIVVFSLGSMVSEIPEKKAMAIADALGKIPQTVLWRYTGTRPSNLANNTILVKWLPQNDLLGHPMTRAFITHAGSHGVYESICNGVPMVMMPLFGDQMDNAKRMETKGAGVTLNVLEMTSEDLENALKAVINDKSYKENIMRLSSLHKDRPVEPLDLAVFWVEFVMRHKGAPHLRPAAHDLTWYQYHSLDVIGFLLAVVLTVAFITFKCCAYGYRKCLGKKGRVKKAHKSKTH

[10] = target: T8, UGT2B7 (Homo sapiens, UniProt P16662); test: Reaction phenotyping, rUGT2B7; details: recombinant UGT2B7, pH 7.4
T8 sequence (P16662 24-529): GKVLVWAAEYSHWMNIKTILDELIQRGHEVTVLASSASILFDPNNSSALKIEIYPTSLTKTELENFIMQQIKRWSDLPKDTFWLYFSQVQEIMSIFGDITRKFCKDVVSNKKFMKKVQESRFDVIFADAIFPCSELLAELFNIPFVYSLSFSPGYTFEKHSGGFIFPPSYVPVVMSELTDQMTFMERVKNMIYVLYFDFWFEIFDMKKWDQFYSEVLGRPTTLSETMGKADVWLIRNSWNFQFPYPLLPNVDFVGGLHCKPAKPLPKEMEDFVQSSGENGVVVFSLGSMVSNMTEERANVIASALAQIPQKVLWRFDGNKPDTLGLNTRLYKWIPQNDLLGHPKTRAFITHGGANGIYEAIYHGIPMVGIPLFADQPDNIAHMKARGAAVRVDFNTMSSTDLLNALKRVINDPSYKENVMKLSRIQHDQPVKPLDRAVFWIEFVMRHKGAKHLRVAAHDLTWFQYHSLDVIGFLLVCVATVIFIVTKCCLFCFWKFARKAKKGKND

Chain of rCYP1B1 (Q16678 whole entry): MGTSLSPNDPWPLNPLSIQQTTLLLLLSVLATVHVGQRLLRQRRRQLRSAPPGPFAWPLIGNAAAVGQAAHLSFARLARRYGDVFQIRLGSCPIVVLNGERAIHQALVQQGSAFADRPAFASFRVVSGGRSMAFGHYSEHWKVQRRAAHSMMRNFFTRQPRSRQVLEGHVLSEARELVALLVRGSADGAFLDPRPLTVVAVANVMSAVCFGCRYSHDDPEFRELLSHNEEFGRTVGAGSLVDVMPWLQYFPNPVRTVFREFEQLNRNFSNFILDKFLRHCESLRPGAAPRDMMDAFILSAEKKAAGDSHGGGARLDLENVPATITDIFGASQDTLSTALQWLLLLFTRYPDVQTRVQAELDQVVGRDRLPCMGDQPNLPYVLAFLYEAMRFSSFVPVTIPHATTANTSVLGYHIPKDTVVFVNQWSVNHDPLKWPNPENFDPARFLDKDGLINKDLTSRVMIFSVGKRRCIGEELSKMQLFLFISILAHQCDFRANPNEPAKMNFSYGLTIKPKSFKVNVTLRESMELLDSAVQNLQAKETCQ

With `Cc1cc(=O)oc2cc(O)ccc12` [4-methylumbelliferone] as the compound, how does the remaining at 1 h, 2 µM [1] read?
The remaining at 1 h, 2 µM was 5.26%.

What about the remaining at 1 h, 2 µM [2] of the same compound?
The remaining at 1 h, 2 µM was 0.82%.

What about the remaining at 1 h, 2 µM [3] of the same compound?
Its remaining at 1 h, 2 µM is 49.9%.

What about the remaining at 1 h, 10 µM [4] of the same compound?
Its remaining at 1 h, 10 µM is 70.9%.

Which “Known Substrate (% Remaining at 60 min)” value [5] does the source give for `CCOc1ccc2nc3ccc(=O)cc-3oc2c1` [7-ethoxyresorufin] here?
Its value is 7-ethoxyresorufin (35.11) %.

For `COc1c(C)c2c(c(O)c1C/C=C(\C)CCC(=O)O)C(=O)OC2` [Mycophenolic acid], which remaining at 1 h, 0.2 µM [6] is on record?
Its remaining at 1 h, 0.2 µM is 0%.

For `CCOc1ccc(NC(C)=O)cc1` [Phenacetin], which remaining at 1 h, 10 µM [7] is on record?
The remaining at 1 h, 10 µM was 41%.

What about the remaining at 1 h, 10 µM [8] of the same compound?
The remaining at 1 h, 10 µM was 65.8%.

Which remaining at 1 h, 0.5 µM [9] does the source give for `CN1CCN(CCCN2c3ccccc3Sc3ccc(C(F)(F)F)cc32)CC1` [Trifluoperazine] here?
Its remaining at 1 h, 0.5 µM is 73.1%.

Which remaining at 1 h, 10 µM [10] does the source give for `Cc1cn([C@H]2C[C@H](N=[N+]=[N-])[C@@H](CO)O2)c(=O)[nH]c1=O` [Zidovudine] here?
Its remaining at 1 h, 10 µM is 74.4%.
